Experimental data from PubChem BioAssay AID330 (DTP/NCI, 2004).
Values joined by “and” are separate entries in the source; they are usually repeats but may differ in a detail not shown here. Equal values may be shown once. Inconclusive results and toxic doses are left out. How the source made its calls: active means survival T/C of 150% or more; inactive means T/C below 125% in these data.

Test system: P388 leukemia ip, CD2F1 mice, survival T/C
Assay: NCI In Vivo Anticancer Drug Screen. Data for tumor model P388 Leukemia (intraperitoneal) in CD2F1 (CDF1) mice
Conditions: endpoint: median survival time, higher = longer survival
How it was run: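 Mice carrying the transplanted tumor received test compound or vehicle. Survival was recorded in each group, and the value is the treated-group measurement divided by that of the vehicle-treated control group.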

[1] = dose: 50.0 mg/kg/injection, schedule: Q01DX005 (ip), vehicle: saline with Tween-80
[2] = dose: 50.0 mg/kg/injection, schedule: Q01DX009 (ip), vehicle: Klucel (hydroxypropylcellulose) (HPC)
[3] = dose: 100.0 mg/kg/injection, schedule: Q01DX009 (ip), vehicle: Klucel (hydroxypropylcellulose) (HPC)
[4] = dose: 200.0 mg/kg/injection, schedule: Q01DX009 (ip), vehicle: Klucel (hydroxypropylcellulose) (HPC)
[5] = dose: 50.0 mg/kg/injection, schedule: Q01DX009 (ip), vehicle: saline with Tween-80
[6] = dose: 100.0 mg/kg/injection, schedule: Q01DX009 (ip), vehicle: saline with Tween-80
[7] = dose: 200.0 mg/kg/injection, schedule: Q01DX009 (ip), vehicle: saline with Tween-80
[8] = dose: 60.0 mg/kg/injection, schedule: Q01DX005 (ip), vehicle: saline with Tween-80
[9] = dose: 120.0 mg/kg/injection, schedule: Q01DX005 (ip), vehicle: saline with Tween-80
[10] = dose: 240.0 mg/kg/injection, schedule: Q01DX005 (ip), vehicle: saline with Tween-80
[11] = dose: 50.0 mg/kg/injection, schedule: Q01DX009 (ip), vehicle: saline

Measured: T/C

COC(=O)C1CC2c3cc4c(cc3CCN2CC1C(=O)OC)OCO4 (stereo unspecified)
inactive: dose: 0.63 mg/kg/injection, schedule: Q01DX009 (ip), vehicle: distilled water + Tween-80 101 % of control | dose: 1.25 mg/kg/injection, schedule: Q01DX009 (ip), vehicle: distilled water + Tween-80 99 % of control | dose: 2.5 mg/kg/injection, schedule: Q01DX009 (ip), vehicle: distilled water + Tween-80 106 % of control | dose: 5.0 mg/kg/injection, schedule: Q01DX009 (ip), vehicle: distilled water + Tween-80 97 % of control | dose: 10.0 mg/kg/injection, schedule: Q01DX009 (ip), vehicle: distilled water + Tween-80 108 % of control | dose: 20.0 mg/kg/injection, schedule: Q01DX009 (ip), vehicle: distilled water + Tween-80 106 % of control

CN1CC[C@H]([C@@H](O)c2ccccc2)C1=O
inactive: dose: 50.0 mg/kg/injection, schedule: Q01DX005 (ip), vehicle: saline 102 % of control | dose: 100.0 mg/kg/injection, schedule: Q01DX005 (ip), vehicle: saline 102 % of control | dose: 200.0 mg/kg/injection, schedule: Q01DX005 (ip), vehicle: saline 107 % of control

C#C/C=C/CC1O[C@H](/C=C/C)C/C=C\CC1Cl (stereo partly specified)
inactive: dose: 7.8 mg/kg/injection, schedule: Q01DX005 (ip), vehicle: Klucel (hydroxypropylcellulose) (HPC) 94 % of control | dose: 15.62 mg/kg/injection, schedule: Q01DX005 (ip), vehicle: Klucel (hydroxypropylcellulose) (HPC) 99 % of control | dose: 31.25 mg/kg/injection, schedule: Q01DX005 (ip), vehicle: Klucel (hydroxypropylcellulose) (HPC) 96 % of control | dose: 62.5 mg/kg/injection, schedule: Q01DX005 (ip), vehicle: Klucel (hydroxypropylcellulose) (HPC) 88 % of control

CCN(CC)P(Cl)(C1=C(Cl)C(=O)C(C#N)=C(C#N)C1=O)(N(CC)CC)N(CC)CC
inactive: dose: 100.0 mg/kg/injection, schedule: Q01DX001 (ip), vehicle: saline with Tween-80 89 % of control | dose: 400.0 mg/kg/injection, schedule: Q01DX001 (ip), vehicle: saline with Tween-80 89 % of control

Cc1cccc(C)c1NC1=C(Cl)C(=O)c2ccccc2C1=O
inactive: dose: 3.75 mg/kg/injection, schedule: Q01DX005 (ip), vehicle: saline with Tween-80 103 % of control | dose: 7.5 mg/kg/injection, schedule: Q01DX005 (ip), vehicle: saline with Tween-80 97 % of control | dose: 15.0 mg/kg/injection, schedule: Q01DX005 (ip), vehicle: saline with Tween-80 100 % of control

c1cnc2c(c1)Oc1nc3ccccc3nc1S2
inactive: [1] 99 % of control | dose: 100.0 mg/kg/injection, schedule: Q01DX005 (ip), vehicle: saline with Tween-80 98 % of control | dose: 200.0 mg/kg/injection, schedule: Q01DX005 (ip), vehicle: saline with Tween-80 96 % of control

CC(O)c1cccc(C(C)(C)O)c1Sc1c(C(C)(C)O)cccc1C(C)(C)O (stereo unspecified)
inactive: dose: 100.0 mg/kg/injection, schedule: Q04DX003 (ip), vehicle: Klucel (hydroxypropylcellulose) (HPC) 99 % of control | dose: 200.0 mg/kg/injection, schedule: Q04DX003 (ip), vehicle: Klucel (hydroxypropylcellulose) (HPC) 98 % of control | dose: 400.0 mg/kg/injection, schedule: Q04DX003 (ip), vehicle: Klucel (hydroxypropylcellulose) (HPC) 97 % of control

COc1ccc(C2CC(=O)N(c3cccc(C)n3)C(=O)C2)cc1
inactive: dose: 100.0 mg/kg/injection, schedule: Q04DX003 (ip), vehicle: saline 100 % of control | dose: 200.0 mg/kg/injection, schedule: Q04DX003 (ip), vehicle: saline 100 % of control | dose: 400.0 mg/kg/injection, schedule: Q04DX003 (ip), vehicle: saline 108 % of control

Oc1c(Br)cc(Br)cc1/C=N/NC(=S)N/N=C/c1cc(Br)cc(Br)c1O
inactive: dose: 12.5 mg/kg/injection, schedule: Q01DX009 (ip), vehicle: distilled water + Tween-80 97 % of control | dose: 25.0 mg/kg/injection, schedule: Q01DX009 (ip), vehicle: distilled water + Tween-80 103 % of control and 108 % of control | dose: 50.0 mg/kg/injection, schedule: Q01DX009 (ip), vehicle: distilled water + Tween-80 118 % of control

COc1cc(CC2NCCc3cc(O)c(O)cc32)cc(OC)c1OC (stereo unspecified)
inactive: dose: 25.0 mg/kg/injection, schedule: Q01DX009 (ip), vehicle: Klucel (hydroxypropylcellulose) (HPC) 103 % of control | [2] 100 % of control and 113 % of control | [3] 106 % of control and 111 % of control | [4] 108 % of control

Cc1nc2ncn(-c3ccccc3)c2c(=O)n1-c1ccccc1
inactive: dose: 50.0 mg/kg/injection, schedule: Q01DX005 (ip), vehicle: Klucel (hydroxypropylcellulose) (HPC) 100 % of control | dose: 100.0 mg/kg/injection, schedule: Q01DX005 (ip), vehicle: Klucel (hydroxypropylcellulose) (HPC) 100 % of control | dose: 200.0 mg/kg/injection, schedule: Q01DX005 (ip), vehicle: Klucel (hydroxypropylcellulose) (HPC) 100 % of control

CCOC(=O)CSc1nnc(N)s1
inactive: [5] 121 % of control | [6] 116 % of control | [7] 98 % of control

Cc1cc(/C=C/c2ccccc2)nc(/C=C/c2ccccc2)c1
inactive: [8] 104 % of control | [9] 97 % of control | [10] 100 % of control

O=C1CSC(c2cc(F)ccc2F)N1c1nncs1 (stereo unspecified)
inactive: [8] 107 % of control | [9] 109 % of control | [10] 104 % of control

CCCCN(CCCC)CC(O)c1c(C)c2ccccc2c2ccccc12 (stereo unspecified)
inactive: dose: 9.0 mg/kg/injection, schedule: Q01DX009 (ip), vehicle: saline with Tween-80 100 % of control | dose: 18.0 mg/kg/injection, schedule: Q01DX009 (ip), vehicle: saline with Tween-80 100 % of control | dose: 36.0 mg/kg/injection, schedule: Q01DX009 (ip), vehicle: saline with Tween-80 100 % of control

C/C=C1\CC2(OC1=O)C(=O)NC(=O)NC2=O
inactive: [11] 103 % of control | dose: 100.0 mg/kg/injection, schedule: Q01DX009 (ip), vehicle: saline 94 % of control

CC1(C)CC(=O)C2=C(C1)Nn1c(nnc1C(F)(F)F)S2
inactive: [5] 102 % of control | [6] 110 % of control | [7] 105 % of control

O=[N+]([O-])/C=C/c1cc2c(cc1O)OCO2
inactive: dose: 75.0 mg/kg/injection, schedule: Q01DX009 (ip), vehicle: Klucel (hydroxypropylcellulose) (HPC) 115 % of control | dose: 150.0 mg/kg/injection, schedule: Q01DX009 (ip), vehicle: Klucel (hydroxypropylcellulose) (HPC) 101 % of control | dose: 300.0 mg/kg/injection, schedule: Q01DX009 (ip), vehicle: Klucel (hydroxypropylcellulose) (HPC) 115 % of control

CCCCCCSC(=O)Nc1ccc(C)c(NC(=O)SCCCCCC)c1
inactive: [5] 100 % of control | [6] 100 % of control | [7] 100 % of control

CCCCCCC(=O)/C=C/c1cc(Cl)cc(Cl)c1O
inactive: [2] 105 % of control | [3] 91 % of control | [4] 101 % of control

O=c1[nH]c2ccccc2c2cc3ccccc3cc12
inactive: dose: 6.25 mg/kg/injection, schedule: Q01DX009 (ip), vehicle: saline 94 % of control | dose: 12.5 mg/kg/injection, schedule: Q01DX009 (ip), vehicle: saline 86 % of control | dose: 25.0 mg/kg/injection, schedule: Q01DX009 (ip), vehicle: saline 99 % of control | [11] 96 % of control | [6] 89 % of control | [7] 89 % of control | dose: 400.0 mg/kg/injection, schedule: Q01DX009 (ip), vehicle: saline with Tween-80 89 % of control

CC(C)(C)/C=C/N1CCN=N1
inactive: dose: 12.5 mg/kg/injection, schedule: Q01DX005 (ip), vehicle: saline with Tween-80 100 % of control | dose: 25.0 mg/kg/injection, schedule: Q01DX005 (ip), vehicle: saline with Tween-80 104 % of control | [1] 102 % of control and 109 % of control

O=C(O)/C=N/NS(=O)(=O)c1cccs1
inactive: dose: 12.5 mg/kg/injection, schedule: Q01DX009 (ip), vehicle: other 119 % of control

ClC1=C(Cl)C(=C2CCCC2)C(Cl)=C1Cl
inactive: [2] 100 % of control | [3] 100 % of control | [4] 87 % of control

c1cc[n+](CC[n+]2ccccn2)nc1
inactive: dose: 12.5 mg/kg/injection, schedule: Q01DX001 (ip), vehicle: saline 108 % of control and 111 % of control and 95 % of control | dose: 25.0 mg/kg/injection, schedule: Q01DX001 (ip), vehicle: saline 100 % of control (2×) and 122 % of control | dose: 50.0 mg/kg/injection, schedule: Q01DX001 (ip), vehicle: saline 100 % of control and 101 % of control and 92 % of control

Nc1nc2c(C(=O)N3CCOCC3)nnn2c2ccccc12
inactive: [5] 100 % of control | [6] 92 % of control | [7] 96 % of control

CCN(CCc1ccc(N)cc1)C(Cc1ccccc1)c1cccc(OC)c1 (stereo unspecified)
inactive: dose: 12.5 mg/kg/injection, schedule: Q01DX009 (ip), vehicle: saline with Tween-80 95 % of control | dose: 25.0 mg/kg/injection, schedule: Q01DX009 (ip), vehicle: saline with Tween-80 95 % of control | [5] 87 % of control
